Like-named read-outs stand apart in the source and are kept apart here.
How the values were obtained:
Format in all cases: physicochemical
[1] = Isolation in an inverting filter centrifuge, industrial scale (isolability)
Description: In the context of the present invention and as outlined in WO2020/126983, improved isolability of the active compound product, dischargeability of the active compound product after isolation and drying and also conveyability, sieveability and micronizability of the active compound product of the compound of the formula (I) are to be understood as meaning the following, for example: Improved isolability is measurable on an industrial scale for example via a higher area-specific throughput in an inverting filter centrifuge (Example 16). In the context of the present invention the isolation of the active compound product is carried out using for example a filter centrifuge, for example an inverting filter centrifuge. […] This manifests for example in a higher area-specific throughput in the inverting filter centrifuge. On an industrial scale isolation of the material from the process of WO 2013/076168 achieved an average area-specific throughput of 1.6 kg/m^2 h. The average area-specific throughput of the material from the process of the invention was 3.0 kg/m^2 h and thus nearly double the above (Example 16). Higher area-specific throughput in an inverting filter centrifuge. Industrial scale.

[2] = Sieving of active compound product on an industrial sieving machine (sieveability); details: for Sieve throughput of active compound product: industrial scale, Frewitt Oscillowitt MG-800 (2.5 to 4.0 mm) for WO 2013/076168 material, Frewitt Coniwitt TC200 (3 mm) for material of the invention; for Time to sieve 65 kg of active compound product: Frewitt Coniwitt TC200, sieve aperture diameter 3 mm
Method: Improved sieveability is measurable for example via improved feeding into the industrial sieving machine as a result of improved flowability of the active compound product and via fewer sieve blockages, for example via the throughput of active compound product per unit time (Example 17).
In the context of the present invention the sieving of the active compound product is carried out for example using a Frewitt Coniwitt TC200 sieving machine (sieve aperture diameter 3 mm) or a Frewitt Oscillowitt MG-800 sieving machine (sieve aperture diameter 2.5 mm to 4.0 mm).
Improved sieveability: The material from the process of the invention is easy to feed into the sieving machine on account of its good flowability. Sieving results in markedly fewer sieve blockages than for material from the process according to route 1. For example on an industrial scale 65 kg of the material from the process of the invention were sievable in <5 min in a Frewitt Coniwitt TC200 sieving machine (sieve aperture diameter 3 mm). This corresponds to >13 kg/min. For comparison sieving material from route 1 via a Frewitt Oscillowitt MG-800 sieving machine (sieve aperture diameter 2.5 mm to 4.0 mm) only achieved throughputs of <10 kg/h. This corresponds to <0.17 kg/min (Example 17). Observed here is a very large difference of a factor of nearly 100 in the sieve throughput of the active compound product of route 1 compared to the active compound product of the invention. This very large difference in sieve throughput results predominantly from the material characteristics of the active compound product and cannot be explained by the different machine types.
Improved sieve throughput. Industrial scale.

[3] = Dischargeability from the inverting filter centrifuge, industrial scale; details: listed as material from the process of the invention
Description: Improved dischargeability from the isolation apparatus: The process according to the process of the present invention prevents the formation of a felt-like filter cake having high tear strength. Both after isolation in the pressure filter and after isolation in the filter centrifugation the filter cake is soft and moldable. This prevents blockage of the discharge path. For example on an industrial scale a blockage of the discharge path from the inverting filter centrifuge after isolation of the material from the process of WO 2013/076168 was avoidable only by reducing the filter cake thickness to 8 mm to 9 mm. By contrast in the isolation of the material from the process of the invention an average filter cake height of 25 mm was realized without any blocking of the discharge path being observed.

[4] = listed as material from the process of the invention

COC(=O)Nc1c(N)nc(-c2nn(Cc3ccccc3F)c3ncc(F)cc23)nc1N [Process of WO 2013/076168, methyl {4,6-diamino-2-[5-fluoro-1-(2-fluorobenzyl)-1H-pyrazolo[3,4-b]pyridin-3-yl]pyrimidin-5-yl}carbamate, reference compound]
Average area-specific throughput [1]: 1.6 kg/m^2h | Average area-specific throughput ([1]; listed as material from the process of WO 2013/076168): 1.6 kg/m^2h | Sieve throughput ([2]; Frewitt Oscillowitt MG-800, sieve aperture diameter 2.5 mm to 4.0 mm): < 10 kg/h | Amount of active compound product sieved in 1 h ([2]; Frewitt Oscillowitt MG-800, sieve aperture diameter 2.5 to 4.0 mm, in 1 h): <10 kg of active compound | Sieve throughput of active compound product [2]: i.e. <0.17 kg/min | Sieve throughput of active compound product ([2]; listed as material from route 1): < 0.17 kg/min

COC(=O)Nc1c(N)nc(-c2nn(Cc3ccccc3F)c3ncc(F)cc23)nc1N [Process of the invention, methyl {4,6-diamino-2-[5-fluoro-1-(2-fluorobenzyl)-1H-pyrazolo[3,4-b]pyridin-3-yl]pyrimidin-5-yl}carbamate]
Filter cake thickness at which the discharge path does not become blocked [3]: 25 mm | Average area-specific throughput [1]: 3.0 kg/m^2h | Average area-specific throughput [1, 4]: 3.0 kg/m^2h | Time to sieve 65 kg of active compound product [2]: product in <5 min | Time to sieve 65 kg of active compound product [2, 4]: < 5 min | Sieve throughput of active compound product [2]: i.e. >13 kg/min | Sieve throughput of active compound product [2, 4]: > 13 kg/min

— patent publication US20230219952A1, “PROCESS FOR PREPARING METHYL {4,6-DIAMINO-2-[5-FLUORO-1-(2-FLUOROBENZYL)-1H-PYRAZOLO[3,4-B]PYRIDIN-3 -YL]PYRIMIDIN-5-YL} CARBAMATE” (ADVERIO PHARMA GMBH, priority 2020, published 2023)
